Data set [1] deals with T1, purified recombinant urease from H. pylori (Helicobacter pylori, UniProt B5Z674).
T1 construct: plasmid pGEM::ureOP, which encodes the entire urease gene cluster, was used to produce recombinant H. pylori urease; made in house; host or cells: E. coli Rosetta2 (DE3) + pGEM::ureOP
The data set is described as follows: Inhibition of purified recombinant H. pylori urease (phenol-hypochlorite, Lineweaver-Burk). The class given is biochemical. Particulars: Ki, 50 mM phosphate buffer pH 7.5, 37°C, 0.1–2.5 mM urea; competitive reversible inhibition. On the procedure: The kinetic parameters of urease were determined by measuring the initial rates of the reactions in 50 mM phosphate buffer (pH 7.5) at 37°C. Ammonia was routinely quantified by the phenol hypochlorite method as reported previously.
Inhibition studies were conducted by initiating the enzymatic reaction with the addition of the enzyme into assay mixtures (200 μL total volume) containing increasing concentrations of inhibitors and 0.1–2.5 mM urea. After 15 min of incubation at 37°C, the reaction was stopped by adding phenol-hypochlorite reagents and the absorbance of the formed indophenol blue complexes was measured at 650 nm. The Ki values were determined from Lineweaver-Burk plots after testing at least five inhibitor concentrations in a range that depended on their inhibitory strength. The concentration of inhibitor that caused the loss of 50% of the enzyme’s activity (IC50) was determined from the measurements that were performed at a urea concentration of 0.6 mM and calculated using the linear regression of the urease activity versus the logarithm of the inhibitor concentrations.
The values of Ki and IC50 for all analyzed compounds were calculated using the appropriate equations in GraphPad Prism 5. Errors were reported with two significant digits, and each measured parameter was given with the same number of decimal places as its error [32].

The target of data set [2] is T2, urease in intact E. coli (pGEM::ureOP) cells (Helicobacter pylori, UniProt B5Z674).
T2 construct: plasmid pGEM::ureOP, which encodes the entire urease gene cluster, was used to produce recombinant H. pylori urease; expressed in transfected cells; host or cells: E. coli Rosetta2 (DE3) transformed with pGEM::ureOP
The data set is described as follows: Urease inhibition in whole cells of E. coli + pGEM::ureOP. The class given is cell-based. Particulars: IC50 exceeding 2 mM considered not active. On the procedure: The expression strain E. coli + pGEM::ureOP was cultured in 150 mL of LB broth (Biocorp, Poland) with 100 μg/mL ampicillin (Polfa, Tarchomin, Poland) at 37°C and induced with IPTG (0.75 mM) and Ni^2+ (0.75 mM) during the exponential growth phase, which was determined by the OD600 measurements (OD600 = 0.6). Further expression was conducted for 24 h at 22°C. The bacterial culture (1 mL) was harvested via centrifugation (2 min, 20 376 x g, 37°C) and washed three times with PBS. The pellets from 1-mL samples of the expression cell culture were resuspended in 100 μL of PBS. The hydrolysis of urea that is catalyzed by whole bacterial cells was performed in 96-well plates (Rotilabo, U-profile). The reaction progress curves were obtained by the addition of bacterial cells (1×10^9 CFU/mL final concentration) into mixtures (300 μL final volume) that contained 5 mM urea and various inhibitor concentrations that depended on their inhibitory strength. Alternatively, the reaction was initiated via the addition of a concentrated solution of urea after a 120-min preincubation of bacterial cells with the inhibitor. Samples (50 μL) of the reaction mixture were removed after the appropriate reaction time. The enzymatic reactions in the samples were terminated via the introduction of 100 μL of phenol-sodium nitroprusside solution, immediately followed by the addition of 100 μL of NaOH-hypochlorite solution. The absorption of indophenol blue was measured at 650 nm using a TECAN-Sunrise absorbance reader equipped with a gradient filter and Magellan software. The IC50 values were determined from the linear regression of the urease activity versus the logarithm of the inhibitor concentration. The reaction was studied in the absence and in the presence of the inhibitor. The influence of dimethylformamide (DMF), which was used as a solvent for several compounds, was also determined.

Data set [3] addresses T3, urease in intact H. pylori J99 (Helicobacter pylori, UniProt P69997).
T3 construct: In the intact H. pylori J99 cells, the urease susceptibility profile was similar to that of E. coli (pGEM::ureOP); endogenous in cells
The data set is described as follows: Urease inhibition in whole cells of H. pylori J99. The class given is cell-based.

For data set [4], the target named is purified urease from Sporosarcina pasteurii (SPU). Also noted: method as in PMID 18717581, PMID 20684601, PMID 21559954, PMID 25699141. The conditions noted are these: read-out: Ki against SPU; cited from earlier work.
Details of data set [5]: method as in PMID 9508511. The conditions noted are these: pH 2; cited from earlier work.
In data set [6] the test system is mouse fibroblasts BALB/3T3. As to the kind of experiment: Sulforhodamine B antiproliferative assay, BALB/3T3. The class given is cell-based. Particulars: compound 0.5 mM, 72 h, read-out: % Proliferation inhibition ± SD. On the procedure: (§1) The BALB/3T3 cell line was cultured in Dulbecco MEM (Gibco, Scotland) supplemented with 10% (v/v) FBS (Sigma-Aldrich, Poznań, Poland) and 2 mM L-glutamine (Sigma-Aldrich, Poznań, Poland). The MCF-10A cell line was cultured in F-12 Nutrient mixture supplemented with 5% (v/v) horse serum (both Gibco, Scotland), 0.05 μg/mL cholera toxin, 10 μg/mL insulin, 0.5 μg/mL hydrocortisone, and 20 ng/mL EGFH (all Sigma-Aldrich, Poznań, Poland). The Eph4-Ev cell line was cultured in Dulbecco MEM supplemented with 2 mM L-glutamine, 10% (v/v) calf bovine serum (ATCC Rockville, Maryland, USA) and puromycin (Sigma-Aldrich, Poznań, Poland). The HEC A10 cell line was cultured in OPTI-MEM (IIET, Wroclaw, Poland) supplemented with 2 mM L-glutamine and 5% (v/v) FBS. All culture media were additionally supplemented with antibiotics: 100 U/mL penicillin and 100 μg/mL streptomycin (both Polfa-Tarchomin, Poland). During all experiments, cells were maintained in a humid atmosphere at 37°C and 5% CO2 and passaged twice a week using EDTA-Trypsin (pH 8; IIET, Wroclaw, Poland) solution as a detachment agent.
(§2) This assay was used as previously described with minor modifications. Briefly, 24 h before adding the tested compounds, cells were seeded in 96-well plates (Sarstedt, Germany) in appropriate culture medium with 10^5 […] (100 μL/well). Cells were treated with each compound in at least four concentrations in the range from 500–4 μM for 72 h. Next, cells were fixed with 50 μL/well of 50% (w/v) trichloroacetic acid (Avantor Performance Materials, Gliwice, Poland). After a 1-hour incubation, the plates were washed several times with tap water, and 50 μL of 0.4% (w/v) solution of sulforhodamine B (Sigma-Aldrich, Germany) in 1% (v/v) acetic acid (Avantor Performance Materials, Gliwice, Poland) was added to each well. After a 30-min incubation at room temperature, unbound dye was washed out with 1% (v/v) acetic acid, whereas bound dye was solubilized with 10 mM unbuffered TRIS (Avantor Performance Materials, Gliwice, Poland) solution. The entire procedure was performed using an EL-406 washing station (BioTek Instruments, USA). Next, absorbance at 540 nm was measured using a Synergy H4 Hybrid Reader (BioTek Instruments, USA). Compounds at each concentration were tested in triplicate in a single experiment, and each experiment was repeated three times independently. The results were calculated using the Prolab-3 system based on Cheburator 0.4 software and was presented as proliferation inhibition percentages at the highest concentration used.

Data set [7] deals with murine mammary gland epithelium Eph4-Ev. As to the kind of experiment: Sulforhodamine B antiproliferative assay, Eph4-Ev. The format is cell-based. The conditions noted are these: Mus musculus, compound 0.5 mM, 72 h, read-out: % Proliferation inhibition ± SD. The method, then: as §1, §2
A general note: Sulforhodamine B stains cellular protein and so reports cell mass.

The test system of data set [8] is immortalized murine endothelial cell line from peripheral lymph node HEC A10. As to the kind of experiment: Sulforhodamine B antiproliferative assay, HEC A10. The format is cell-based. The conditions noted are these: Mus musculus, compound 0.5 mM, 72 h, read-out: % Proliferation inhibition ± SD. On the procedure: as §1, §2
Data set [9] relates to human mammary gland MCF-10A. The data set is described as follows: Sulforhodamine B antiproliferative assay, MCF-10A. The class given is cell-based. Particulars: compound 0.5 mM, 72 h, read-out: % Proliferation inhibition ± SD. The method, then: as §1, §2
In data set [10] the target is purified urease from Proteus mirabilis (PMU). The arrangement: method as in PMID 18717581, PMID 20684601, PMID 21559954, PMID 25699141. Particulars: read-out: Ki against PMU; cited from earlier work.
Setting [11] is: IC500, without preincubation of cells with inhibitory compounds, 30-min reactions, 5 mM urea.
The mark [12] stands for this setting: IC502h PBS, 2 h of preincubation with inhibitors in PBS.
Setting [13] is: cells grown with urea, 2 h of preincubation with inhibitors in PBS under microaerobic conditions, read-out: IC502h PBS.
Setting [14] is: cells grown with urea, 2 h of preincubation with inhibitors in growth medium under microaerobic conditions, read-out: IC502h medium.
Setting [15] is: cells grown with urea, without preincubation, read-out: IC500.
Setting [16] is: cells grown without urea, 2 h of preincubation with inhibitors in PBS under microaerobic conditions, read-out: IC502h PBS.
Where [17] appears, read: cells grown without urea, without preincubation, read-out: IC500.

Molecules are shown by their SMILES. Where “and” joins values, the source holds several entries; their conditions need not be identical. Equal values may be shown once. Read-outs that look alike come from different tables or passages of the source.

The source of these data is publication PMC5550016, “Aminophosphinates against Helicobacter pylori ureolysis—Biochemical and whole-cell inhibition characteristics” (PLoS ONE, 2017).

T3 sequence (Q9ZMZ4 whole entry): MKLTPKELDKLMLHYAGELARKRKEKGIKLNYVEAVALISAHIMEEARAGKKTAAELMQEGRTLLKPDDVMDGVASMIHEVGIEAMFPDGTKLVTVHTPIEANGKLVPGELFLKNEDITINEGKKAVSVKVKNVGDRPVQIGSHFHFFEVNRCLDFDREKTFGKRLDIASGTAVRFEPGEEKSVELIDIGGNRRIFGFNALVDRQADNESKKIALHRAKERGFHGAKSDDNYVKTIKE
T3 sequence (P69997 whole entry): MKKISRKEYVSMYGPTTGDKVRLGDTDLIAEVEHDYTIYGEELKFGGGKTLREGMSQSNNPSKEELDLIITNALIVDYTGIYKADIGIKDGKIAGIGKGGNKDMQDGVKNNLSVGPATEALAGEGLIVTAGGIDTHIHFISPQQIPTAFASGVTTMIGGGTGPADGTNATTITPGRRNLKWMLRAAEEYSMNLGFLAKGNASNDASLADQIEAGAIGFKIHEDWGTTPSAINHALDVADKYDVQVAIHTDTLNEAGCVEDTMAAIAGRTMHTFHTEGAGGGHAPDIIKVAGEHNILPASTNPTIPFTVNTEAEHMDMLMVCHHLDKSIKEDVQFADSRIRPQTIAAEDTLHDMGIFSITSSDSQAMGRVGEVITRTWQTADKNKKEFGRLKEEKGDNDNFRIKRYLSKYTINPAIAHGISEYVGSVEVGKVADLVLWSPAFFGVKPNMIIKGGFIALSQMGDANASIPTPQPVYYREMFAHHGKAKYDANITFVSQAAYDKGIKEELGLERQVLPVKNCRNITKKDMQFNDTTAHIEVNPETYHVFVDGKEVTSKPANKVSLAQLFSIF
T2 sequence (B5Z674 whole entry, looked up): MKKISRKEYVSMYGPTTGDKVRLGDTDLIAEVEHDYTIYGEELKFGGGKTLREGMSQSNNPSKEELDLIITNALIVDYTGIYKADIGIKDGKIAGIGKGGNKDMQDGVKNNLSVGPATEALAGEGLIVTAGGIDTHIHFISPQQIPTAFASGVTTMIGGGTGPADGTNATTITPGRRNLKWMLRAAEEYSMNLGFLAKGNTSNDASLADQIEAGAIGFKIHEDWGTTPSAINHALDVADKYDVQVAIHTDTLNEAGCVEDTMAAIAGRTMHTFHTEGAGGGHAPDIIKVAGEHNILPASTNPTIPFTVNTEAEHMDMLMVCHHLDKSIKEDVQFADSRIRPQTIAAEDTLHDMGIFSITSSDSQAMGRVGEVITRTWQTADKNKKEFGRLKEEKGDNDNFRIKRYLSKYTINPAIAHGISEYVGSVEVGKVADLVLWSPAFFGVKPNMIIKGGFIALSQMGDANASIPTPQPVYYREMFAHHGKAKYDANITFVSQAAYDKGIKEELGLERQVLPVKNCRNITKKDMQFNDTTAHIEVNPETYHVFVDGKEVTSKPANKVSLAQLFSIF
T1 sequence (B5Z674 whole entry, looked up): as above

As for `CN(C)CP(C)(=O)O` [Compound 3, N,N-dimethylaminomethyl-P-methylphosphinic acid], the figures for the Ki in [1] and in data set [4] were 9.27 ± 0.35 µM and 0.62 µM, respectively. For the same compound, the IC50 in data set [2] (setting [11]) amounted to 179 ± 32 µM; in [2] (setting [12]), 25.1 ± 4.9 µM; in [3] (setting [13]), 395 ± 37 µM; in data set [3] (setting [14]), 304 ± 16 µM; in data set [3] (setting [15]), 640 ± 18 µM; in [3] (setting [16]) it was 765 ± 31 µM. Also, the IC50 in data set [3] (setting [17]) worked out at 530 ± 24 µM.
With `NP(N)(=O)NC(=O)c1ccc(F)cc1` [fluorofamide, N-(diaminophosphinyl)-4-fluorobenzamide], the half-life in data set [5] is 5 min.
With `CCCCCCNCP(=O)(O)CN` [Compound 13, N-n-hexylaminomethyl-P-aminomethylphosphinic acid], the Ki in data set [1] is 0.29 µM and 0.294 µM; in [10], 0.2 µM. In addition, the IC50 in data set [2] (setting [11]) came out at 186 ± 30 µM; in data set [2] (setting [12]), 16.9 ± 2.2 µM; in data set [3] (setting [13]), 608 ± 23 µM; in data set [3] (setting [14]), 205 ± 15 µM; in data set [3] (setting [15]) it was 510 ± 16 µM; in data set [3] (setting [16]), 742 ± 55 µM. Besides, the IC50 in data set [3] (setting [17]) amounted to 597 ± 19 µM. The inhibition at 500 µM in [6] came to 6.5 ± 3.6%; in data set [7], 0%; in [8], 0%; in [9], 0.5 ± 0.4%.
As for `CNCP(=O)(O)CO` [Compound 4, N-methylaminomethyl-P-hydroxymethylphosphinic acid], the inhibition constant Ki in data set [1] was 1.03 µM; in data set [4], 0.43 µM. The IC50 was 759 ± 106 µM in data set [2] (setting [11]); 430 ± 63 µM in [2] (setting [12]); 373 ± 48 µM in data set [3] (setting [13]); 207 ± 11 µM in [3] (setting [14]); 465 ± 42 µM in [3] (setting [15]); 676 ± 23 µM in data set [3] (setting [16]). Also, the IC50 in data set [3] (setting [17]) was 341 ± 41 µM. The inhibition at 500 µM in [6], in [7], in [8] and in [9] was 0% in each case.

In general, Ki refers to a dissociation constant, usually derived from enzyme kinetics or from competition with a known ligand. The half-life is how long it takes for the measured level to halve.
